Assay results reported in patent US5444089A, “Neutral lipids from endosperm of Job's tears” (Li; Da P., priority 1992, dated 1995).

Key:
sarcoma (S-180) = assay: Anti-tumor effect on sarcoma (S-180) in vivo; parameters: species or system mice
Procedure: Sarcoma (S-180) tissues growing luxuriantly were prepared to be a cell suspension with physical saline 1:3(w/v). Mice were divided into groups at random the next day and were administered with doses of NLEJ emulsion of 25 ml/kg iv×7 (qd), doses of cyclophosphamide of 30 mg/kg ip×2 (second and fourth), doses of mitoxantrone (DHAD) of 2 mg/kg ip×2 (second and fourth), and doses of mitomycin of 1.5 mg/kg ip×2 (second and fourth). Tumor tissues from all treatments were sampled and weighed to calculate tumor inhibition ratios 14 days after inoculating.

[1] = system: Walaer carcinosarcoma (solid) W256; assay: Anti-tumor effect on Walaer carcinosarcoma (solid) W256 in vivo; parameters: species or system rat
Procedure: Ascites Walaer carcinosarcoma (solid) W256 tissues growing luxuriantly were digested to be a cell suspension. The cell suspension was regulated to have a 1-2×10^7 /ml cell density. 0.2 ml of the suspension was inoculated under the skin of armpit of each rat. The rats were divided into groups at random the next day and were administered with doses of NLEJ emulsion of 20 ml/kg, 10 ml/kg, 5 ml/kg iv×10 (qd), and doses of […], the doses of cyclophosphamide were 30 mg/kg iv×7 (qd), mg/kg iv×2 (third and fifth). Tumor tissues from all treatments were sampled and weighed to calculate tumor inhibition ratios 14 days after inoculating.

leukocyte [2] = assay: Protection on decrease of leukocyte induced by cyclophosphamide chemotherapy; assay type: in vivo, Swiss mice; details: CTX 45 mg/kg ip × 1, 5, 9
Procedure: (§1) 80 Swiss mice were divided into eight groups at random, were administered with cyclophosphamide at 45 mg/kg ip×3 (second, sixth and tenth), or harringtonine (HRTN) at 1 mg/kg ip×3 (second, sixth and tenth). To each of two of the medicine groups were administered NLEJ emulsion at the same time, at doses of 2.4 ml/kg and 6.25 ml/kg iv×7 (every day). At the beginning and on the fourth day of each administration, blood was sampled from the angle of each mouse's eye, and leukocytes of the blood were counted.

human hepatoma (QGY) = assay: Growth of human hepatoma (QGY) in nude mice; assay type: in vivo, human (nude mouse); details: 30 mg/kg ip daily 7 days
Procedure: Hepatoma (QGY) tissues growing luxuriantly were homogenized in physical saline (1:4) and prepared as a suspension. Each nude mouse was inoculated subcutaneously with 0.2 ml of the suspension at its armpit. The nude mice were divided into groups at random the next day. The doses of NLEJ emulsion were 25 ml/kg, 12.5 ml/kg and 6.25 ml/kg. The emulsion was administrated intravenously at the tail of the nude mouse every day for 10 days. One group of mice were administered with cyclophosphamide (CTX) of a dose of 30 mg/kg intraperitoneally every day for 7 days. The nude mice of the control group were administered with a similar emulsion just absent the NLEJ (blank emulsion) at a dose of 25 ml/kg intravenously at the tail of the nude mouse every day for 10 days. Tumor tissues of all nude mice were sampled and weighed 30 days after inoculating.

melanoma (B16) = assay: Metastasis of melanoma (B16) in lung in vivo; parameters: species or system C57BL/6 mouse; details: 100 mg/kg ip × 2 (3, 5)
Procedure: Melanoma B16 tissues growing at logarithmic stage were digested with 0.15% trypsin, and 0.2 ml suspension of 2.5×10^5 cells/ml in RPMI 1640 medium from the tissues was inoculated intravenously into the tail of each C57BL/6 mouse. Mice were divided into groups at random 3 days after inoculating and were administered different emulsions. Mice were killed 21 days after inoculating, and metastasized colonies of melanoma in mouse's lung were counted to calculate the inhibition ratio and compare the different effects of different administrations of NLEJ emulsion on metastasis of malanoma in lung. 100 mg/kg cyclophosphamide (CTX) was administered in the same way to compare with NLEJ emulsion.

[3] = system: human small cell lung cancer (SPC); assay: Growth of human small cell lung cancer (SPC) in nude mice; assay type: in vivo, human (nude mouse); details: 40 mg/kg iv×10 (qd)
Procedure: SPC tumor tissues growing luxuriantly were cut into pieces of 2 mm, one of the pieces was inoculated under the skin of the armpit of each nude mouse. Nude mice were divided into groups at random the next day and one group was administered with the NLEJ emulsion at a dose of 25 ml/kg iv×10 (qd), one group of mice was administered with dacarbazine (DTIC) at a dose of 40 mg/kg iv×10 (qd), and the nude mice of the control group were administered with blank emulsion at a dose of 25 ml/kg iv×10 (qd). Tumor tissues of all nude mice were sampled and weighed 30 days after inoculating.

leukocyte [4] = assay: Protection on decrease of leukocyte induced by harringtonine chemotherapy; assay type: in vivo, Swiss mice; details: HRTN 1 mg/kg ip × 1, 5, 9
Procedure: as §1

[5] = system: mouse Ehrlich ascites tumor; details: cited from earlier work

O=P1(N(CCCl)CCCl)NCCCO1 (stereo not shown) [CTX, cyclophosphamide]
Inhibition (%) (sarcoma (S-180); 30 mg/kg ip × 2 (1, 3)): 39.4% | Inhibition (%) ([1]; 10 mg iv × 2): 38.58% | Weight (tumor) ([1]; 10 mg iv × 2): 2.07 ± 1.11 g | Inhibition (%) ([1]; 30 mg iv × 7): 88.13% | Weight (tumor) ([1]; 30 mg iv × 7): 0.4 ± 0.15 g | Leucocyte number (leukocyte [2]; time 0): 62 × 100/mm^3 | Leucocyte number (leukocyte [2]; time 3): 49 × 100/mm^3 | Leucocyte number (leukocyte [2]; time 6): 45 × 100/mm^3 | Leucocyte number (leukocyte [2]; time 9): 41 × 100/mm^3 | Leucocyte number (leukocyte [2]; time 12): 41 × 100/mm^3 | Leucocyte number (leukocyte [2]; time 15): 42 × 100/mm^3 | Leucocyte number (leukocyte [2]; time 18): 45 × 100/mm^3 | Leucocyte number (leukocyte [2]; time 21): 47 × 100/mm^3 | Leucocyte number (leukocyte [2]; time 24): 49 × 100/mm^3 | Inhibition (%) (human hepatoma (QGY)): 91.00% | Tumor (human hepatoma (QGY)): 0.28 ± 0.08 g | Colony No. (melanoma (B16); Table 4): 18.80 ± 8.50 | Inhibition (%) (melanoma (B16); Table 4): 95.90% | Colony No. (melanoma (B16); Table 5): 8.0 ± 6.22 | Inhibition (%) (melanoma (B16); Table 5): 98.67% | Colony No. (melanoma (B16); Table 6): 0 | Inhibition (%) (melanoma (B16); Table 6): 100%

O=C1c2c(O)ccc(O)c2C(=O)c2c(NCCNCCO)ccc(NCCNCCO)c21 [DHAD, mitoxantrone]
Inhibition (%) (sarcoma (S-180); 2 mg/kg ip × 2 (1, 3)): 50%

CN(C)/N=N/c1[nH]cnc1C(N)=O [DTIC, dacarbazine]
Inhibition (%) [3]: 94.94% | Tumor [3]: 0.18 ± 0.04

COC(=O)C[C@](O)(CCC(C)(C)O)C(=O)O[C@@H]1C(OC)=C[C@]23CCCN2CCc2cc4c(cc2[C@H]13)OCO4 [HRTN, harringtonine]
Leucocyte number (leukocyte [4]; time 0): 60 × 100/mm^3 | Leucocyte number (leukocyte [4]; time 3): 75 × 100/mm^3 | Leucocyte number (leukocyte [4]; time 6): 65 × 100/mm^3 | Leucocyte number (leukocyte [4]; time 9): 50 × 100/mm^3 | Leucocyte number (leukocyte [4]; time 12): 44 × 100/mm^3 | Leucocyte number (leukocyte [4]; time 15): 43 × 100/mm^3 | Leucocyte number (leukocyte [4]; time 18): 49 × 100/mm^3 | Leucocyte number (leukocyte [4]; time 21): 53 × 100/mm^3 | Leucocyte number (leukocyte [4]; time 24): 56 × 100/mm^3

CO[C@@]12[C@H](COC(N)=O)C3=C(C(=O)C(C)=C(N)C3=O)N1C[C@@H]1N[C@@H]12 [Mitomycin, mitomycin]
Inhibition (%) (sarcoma (S-180); 1.5 mg/kg ip × 2 (1, 3)): 39.4%

CCCCCC/C=C\CCCCCCCC(=O)O[C@H](C)[C@H](C)OC(=O)CCCCCCCCC/C=C/CCCCCC [coixenolide]
Growth of mouse Ehrlich ascites tumor ([5]; Ukita 1961): inhibit the growth | Anti-tumor activity ([5]; pure compound): strong anti-tumor activity
